{
  "source": "paper PMC12844237",
  "about": "“A Novel Quinolone JH62 (E-2-(Tridec-4-en-1-yl)-quinolin-4(1H)-one) from Pseudomonas aeruginosa Exhibits Potent Anticancer Activity” (Microorganisms, 2025)",
  "key": {"[1]": {"system": "A549: human lung cancer cell lines", "assay": "WST-1 cell viability, A549", "assay_type": "cell-based", "settings": "for IC50: WST-1; for reduced viability: 24 h", "from_the_text": "(§1) Different cells were utilized as follows: MEF: murine embryonic fibroblast (RRID: CVCL_L690); AML12: mouse liver cell lines (RRID: CVCL_0140); WI-38: human lung fibroblast cell lines (RRID: CVCL_0579); THLE-2: human liver epithelial cell lines (RRID: CVCL_3803); A549: human lung cancer cell lines (RRID: CVCL_0023); HEPG2: human liver cancer cell lines (RRID: CVCL_0027); HEP3B: human hepatoma cell lines (RRID: CVCL_0326); BxPC3: human pancreatic cancer cell lines (RRID: CVCL_0186); U87: human primary glioblastoma cell lines (RRID: CVCL_0022); DU145: human prostate cancer cell lines (RRID: CVCL_0105); MCF7: human breast cancer cell lines (RRID: CVCL_0031); HeLa: human cervical cancer cell lines (RRID: CVCL_0030); HCT116: human colon cancer cell lines (RRID: CVCL_0291). Cells were maintained in Dulbecco’s modified Eagle’s medium (DMEM, Gibco) supplemented with L-glutamine (Lonza) (2 mM), 10% fetal bovine serum (FBS, Hyclone), 1 × non-essential amino acids, and sodium pyruvate (1 mM). THLE-2 cells were maintained in THLE-2 Cell Complete Medium (Zhong Qiao Xin Zhou, Shanghai, China). Cells were incubated at 37 °C in a humidified incubator with 5% CO2. A549 cells were previously stored in the lab and other cell lines were a gift from Haishan Wang’s lab (Institute of Molecular and Cell Biology, Singapore). All cell lines were confirmed to be contamination-free.\nCell viability was assessed using the WST-1 assay, based on a previously reported method with slight modifications. Briefly, cells were seeded at 1 × 10^4 cells per well in 96-well plates and then treated with different doses of JH62 or DOX for 0–72 h. The cells used included non-cancer cells (MEF, AML12, WI-38, and THLE-2) and cancer cells (A549, HEPG2, HEP3B, BxPC3, U87, DU145, MCF7, HeLa, and HCT116). The WST-1 reagent (Roche, Shanghai, China) was added to each well (10% vol/vol final concentration), followed by incubation for 3 h at 37 °C. Absorbance at OD450 was measured using a microplate reader (Synergy H1; BioTek Instruments, Winooski, VT, USA)."}, "[2]": {"system": "MCF7: human breast cancer cell lines", "assay": "WST-1 cell viability, MCF7", "assay_type": "cell-based", "settings": "MCF7 (breast) cancer cell line", "from_the_text": "as §1, with “A549 cells were previously stored in the lab and other cell lines were a gift from Haishan Wang’s lab (Institute of Molecular and Cell Biology, Singapore). All cell lines were confirmed to be contamination-free.” left out\n(§2) Cell viability was assessed using the WST-1 assay, based on a previously reported method with slight modifications. […] Absorbance at OD450 was measured using a microplate reader (Synergy H1; BioTek Instruments, Winooski, VT, USA)."}, "[3]": {"system": "HeLa: human cervical cancer cell lines", "assay": "WST-1 cell viability, HeLa", "assay_type": "cell-based", "settings": "HeLa (cervical) cancer cell line", "from_the_text": "as §1, with “A549 cells were previously stored in the lab and other cell lines were a gift from Haishan Wang’s lab (Institute of Molecular and Cell Biology, Singapore). All cell lines were confirmed to be contamination-free.” left out\nas §2"}, "[4]": {"system": "HCT116: human colon cancer cell lines", "assay": "WST-1 cell viability, HCT116", "assay_type": "cell-based", "settings": "HCT-116, HCT116 (colon) cancer cell line", "from_the_text": "as §1, with “A549 cells were previously stored in the lab and other cell lines were a gift from Haishan Wang’s lab (Institute of Molecular and Cell Biology, Singapore). All cell lines were confirmed to be contamination-free.” left out\nas §2"}, "[5]": {"system": "A549 injected xenograft mouse model", "assay": "Tumorigenicity assay, xenograft mouse model", "assay_type": "in vivo, BALB/c nude mice", "experimental": "Tumorigenicity assays were performed using BALB/c nude mice, adapted from previously described protocols with slight modifications. To establish the xenograft cancer model, cancer cells (1 × 10^6) were subcutaneously injected into the right dorsal side of 6-week-old male BALB/c nude mice to induce tumor formation. The mice were randomly divided into 2 groups (n = 15). One group served as the control, and the other groups were treated with JH62 at doses of 10 mg/kg, via intraperitoneal injection twice a week. The mice in the control group were administered an equal volume of DMSO as the solvent control. The tumor sizes were measured weekly for three weeks. After that, the mice were sacrificed, and the tumors were isolated and weighed. All animal studies were approved by the Ethics Committee of South China Agricultural University.\nTo evaluate the efficacy of JH62 in inhibiting tumorigenesis in vivo, a cancer xenograft model was established by transplanting cancer cells into the right flank of nude mice. The mice were treated with JH62 (10 mg/kg body weight) twice weekly for three weeks, and tumor volume changes were regularly monitored during this period. […] After 20 days of treatment, the average weight of solid tumors in the JH62-treated group was 186.3 mg, compared to 693.4 mg in the control group. The average tumor size in the control group was approximately 900 mm^3, while in the JH62-treated group, it was only about 190 mm^3 (Figure 2H,I)."}, "A549 cells": {"system": "A549 cells", "assay": "Chromosome staining experiment", "assay_type": "cell-based, human", "settings": "A549, 5 μM DOX or 25 μM JH62 for 6 h", "experimental": "Metaphase chromosome spreads were prepared from A549 cells. Briefly, A549 cells were cultured. After treatment with JH62 or DOX, cells were incubated with Colcemid (Gibco BRL; 0.2 μg/mL final concentration) for 2 h to arrest cells in metaphase. Cells were then subjected to hypotonic treatment in KCl (0.075 M) at 37 °C for 5 min, and fixed by repeated washing with ice-cold freshly prepared 3:1 (vol/vol) methanol:acetic acid. Chromosome spreads were prepared on premarked glass slides using the “drop-cryo” protocol. The chromosome suspension was dropped onto a slide. This was followed by adding three drops of 45% acetic acid and placing a coverslip over the suspension. The slide was then inverted and placed on dry ice for 15 min. The spreads were postfixed in 2.5% glutaraldehyde in cacodylate buffer (pH 7.4, 75 mM) for 15 min and washed with cacodylate buffer (0.1 M). The chromosomes were stained with Vista Green DNA dye (Cell Biolabs, Singapore). After staining, the preparations were washed in water for 5, 10, and 15 min, then dehydrated using a series of ethanol solutions as follows: 5 min in a 70% solution, 10 min in an 85% solution, and 15 min in 100% ethanol. Finally, slides were mounted with a permanent mounting medium, sealed, and analyzed by microscopy."}, "A549 lung cancer cells": {"system": "A549 lung cancer cells", "assay": "Cell death inhibitor rescue (zVAD-fmk, Nec-1)", "assay_type": "cell-based, human", "settings": "A549, zVAD-fmk and Nec-1 individually or in combination", "from_the_text": "Therefore, we investigated whether zVAD-fmk and Nec-1 could attenuate JH62-induced cell death in A549 lung cancer cells."}},
  "data": [
    {"compound": "CCCCCCCC/C=C/CCCc1cc(=O)c2ccccc2[nH]1", "note": "[JH62, E-2-(tridec-4-en-1-yl)-quinolin-4(1H)-one]", "values": [
      {"measurement": "IC50", "setting": "[1]; A549 (lung) cancer cell line", "result": "14.8 ± 0.1", "unit": "µM"},
      {"measurement": "reduced viability", "setting": "[1]; A549, 12.5 μM", "result": 20, "unit": "%"},
      {"measurement": "viability decreased", "setting": "[1]; A549, 12.5 μM, 32 h", "result": 32, "unit": "%"},
      {"measurement": "viability decreased", "setting": "[1]; A549, 12.5 μM, 48 h", "result": 19, "unit": "%"},
      {"measurement": "reduced viability", "setting": "[1]; A549, 25 μM", "result": 48, "unit": "%"},
      {"measurement": "viability decreased", "setting": "[1]; A549, 25 μM, 32 h", "result": 65, "unit": "%"},
      {"measurement": "viability decreased", "setting": "[1]; A549, 25 μM, 48 h", "result": 74, "unit": "%"},
      {"measurement": "reduced viability", "setting": "[1]; A549, 50 μM", "result": 78, "unit": "%"},
      {"measurement": "viability decreased", "setting": "[1]; A549, 50 μM, 32 h", "result": 84, "unit": "%"},
      {"measurement": "viability decreased", "setting": "[1]; A549, 50 μM, 48 h", "result": 92, "unit": "%"},
      {"measurement": "IC50", "setting": "[1]; Homo sapiens, A549, A549 (lung) cancer cell line", "result": 15, "unit": "µM"},
      {"measurement": "IC50", "setting": "[2]", "result": "13.9 ± 1.3", "unit": "µM"},
      {"measurement": "IC50", "setting": "[3]", "result": "13.6 ± 2.7", "unit": "µM"},
      {"measurement": "IC50", "setting": "[4]", "result": "8.6 ± 0.1", "unit": "µM"},
      {"measurement": "average weight of solid tumors", "setting": "[5]; 10 mg/kg intraperitoneal twice weekly, after 20 days of treatment, control 693.4 mg", "result": 186.3, "unit": "mg"},
      {"measurement": "average tumor size", "setting": "[5]; 10 mg/kg intraperitoneal twice weekly, three weeks, control approximately 900 mm^3", "result": "about 190 mm^3"},
      {"measurement": "reduced tumor volume", "setting": "[5]; xenograft mice, 10 mg/kg", "result": 79, "unit": "%"},
      {"measurement": "reduced tumor weight", "setting": "[5]; xenograft mice, 10 mg/kg", "result": 73, "unit": "%"},
      {"measurement": "chromosome morphology", "setting": "A549 cells", "result": "maintained normal morphology similar to the control"},
      {"measurement": "cell death type (reversal by zVAD-fmk and Nec-1)", "setting": "A549 lung cancer cells", "result": "not associated with apoptosis or necroptosis"}
    ]}
  ]
}
